Values of other authors, collected in patent publication US20190117852A1, “IMPROVEMENTS IN STENTS FOR THE RELEASE OF ACTIVE PRINCIPLES” (CID S.p.A., priority 2016, published 2019).

Conditions: duration of release; correlated to complete in vitro release at 30 hours

- in vivo release after coronary implantation: greater than 30 days
Compound: CO[C@H]1C[C@@H]2CC[C@@H](C)[C@@](O)(O2)C(=O)C(=O)N2CCCC[C@H]2C(=O)O[C@H]([C@H](C)C[C@@H]2CC[C@@H](O)[C@H](OC)C2)CC(=O)[C@H](C)/C=C(\C)[C@@H](O)[C@@H](OC)C(=O)[C@H](C)C[C@H](C)/C=C/C=C/C=C/1C [Sirolimus]
